Patent US8192962B2, “Processes for detecting toxic substances” (Daikin Industries, Ltd., priority 2001, dated 2012)

System: Metabolism protein genes
Assay: DNA chip mRNA expression in yeast, metabolism protein genes (Table 7)
Assay type: cell-based, Saccharomyces cerevisiae S288C
Outline: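 Values are treated/untreated fluorescence ratios from a whole-genome yeast DNA chip hybridized over 12 hours at 65° C with Cy3- or Cy5-labelled cDNA from poly(A) mRNA. Log-phase S288C yeast in YPD at 25° C had received a single toxic chemical for two hours, dosed to slow growth without killing.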

C=CC=O [(14), acrolein]
The level of expressed mRNA in the presence of chemical substance/The level of expressed mRNA in the absence of chemical substance (yeast gene YAL012W): 0.9 | The level of expressed mRNA in the presence of chemical substance/The level of expressed mRNA in the absence of chemical substance (yeast gene YAL038W): 0.5 | level of expressed mRNA in the presence/in the absence of chemical substance (yeast gene YBR003W): 0.8 | level of expressed mRNA in the presence/in the absence of chemical substance (yeast gene YBR011C): 0.9 | level of expressed mRNA in the presence/in the absence of chemical substance (yeast gene YBR020W): 1.0 | The level of expressed mRNA in the presence of chemical substance/The level of expressed mRNA in the absence of chemical substance (yeast gene YBR023C): 0.8 | The level of expressed mRNA in the presence of chemical substance/The level of expressed mRNA in the absence of chemical substance (yeast gene YBR029C): 0.9 | The level of expressed mRNA in the presence of chemical substance/The level of expressed mRNA in the absence of chemical substance (yeast gene YBR068C): 1.8 | The level of expressed mRNA in the presence of chemical substance/The level of expressed mRNA in the absence of chemical substance (yeast gene YBR183W): 1.3 | The level of expressed mRNA in the presence of chemical substance/The level of expressed mRNA in the absence of chemical substance (yeast gene YBR222C): 0.5 | The level of expressed mRNA in the presence of chemical substance/The level of expressed mRNA in the absence of chemical substance (yeast gene YBR256C): 5.6 | The level of expressed mRNA in the presence of chemical substance/The level of expressed mRNA in the absence of chemical substance (yeast gene YCL009C): 0.7 | The level of expressed mRNA in the presence of chemical substance/The level of expressed mRNA in the absence of chemical substance (yeast gene YCL064C): 0.8 | level of expressed mRNA in the presence/in the absence of chemical substance (yeast gene YCR010C): 1.2 | level of expressed mRNA in the presence/in the absence of chemical substance (yeast gene YCR034W): 0.6 | The level of expressed mRNA in the presence of chemical substance/The level of expressed mRNA in the absence of chemical substance (yeast gene YCR048W): 0.9 | The level of expressed mRNA in the presence of chemical substance/The level of expressed mRNA in the absence of chemical substance (yeast gene YCR098C): 1.1 | The level of expressed mRNA in the presence of chemical substance/The level of expressed mRNA in the absence of chemical substance (yeast gene YDR019C): 1.6 | level of expressed mRNA in the presence/in the absence of chemical substance (yeast gene YDR050C): 1.2 | level of expressed mRNA in the presence/in the absence of chemical substance (yeast gene YDR073W): 1.2 | level of expressed mRNA in the presence/in the absence of chemical substance (yeast gene YDR123C): 0.7 | level of expressed mRNA in the presence/in the absence of chemical substance (yeast gene YDR178W): 1.5 | level of expressed mRNA in the presence/in the absence of chemical substance (yeast gene YDR277C): 1.3 | level of expressed mRNA in the presence/in the absence of chemical substance (yeast gene YDR284C): 1.3 | level of expressed mRNA in the presence/in the absence of chemical substance (yeast gene YDR345C): 0.8 | The level of expressed mRNA in the presence of chemical substance/The level of expressed mRNA in the absence of chemical substance (yeast gene YDR380W): 0.6 | level of expressed mRNA in the presence/in the absence of chemical substance (yeast gene YDR400W): 0.9 | level of expressed mRNA in the presence/in the absence of chemical substance (yeast gene YDR408C): 0.9 | level of expressed mRNA in the presence/in the absence of chemical substance (yeast gene YDR483W): 0.8 | The level of expressed mRNA in the presence of chemical substance/The level of expressed mRNA in the absence of chemical substance (yeast gene YDR497C): 0.6 | The level of expressed mRNA in the presence of chemical substance/The level of expressed mRNA in the absence of chemical substance (yeast gene YDR502C): 0.8 | The level of expressed mRNA in the presence of chemical substance/The level of expressed mRNA in the absence of chemical substance (yeast gene YDR516C): 0.7 | level of expressed mRNA in the presence/in the absence of chemical substance (yeast gene YEL063C): 0.8 | level of expressed mRNA in the presence/in the absence of chemical substance (yeast gene YER015W): 1.1 | The level of expressed mRNA in the presence of chemical substance/The level of expressed mRNA in the absence of chemical substance (yeast gene YER026C): 1.1 | The level of expressed mRNA in the presence of chemical substance/The level of expressed mRNA in the absence of chemical substance (yeast gene YER053C): 1.3 | The level of expressed mRNA in the presence of chemical substance/The level of expressed mRNA in the absence of chemical substance (yeast gene YER069W): 1.3 | level of expressed mRNA in the presence/in the absence of chemical substance (yeast gene YER081W): 1.6 | The level of expressed mRNA in the presence of chemical substance/The level of expressed mRNA in the absence of chemical substance (yeast gene YER096W): 3.1 | level of expressed mRNA in the presence/in the absence of chemical substance (yeast gene YER120W): 0.9 | The level of expressed mRNA in the presence of chemical substance/The level of expressed mRNA in the absence of chemical substance (yeast gene YER178W): 0.9 | level of expressed mRNA in the presence/in the absence of chemical substance (yeast gene YFL011W): 0.8 | The level of expressed mRNA in the presence of chemical substance/The level of expressed mRNA in the absence of chemical substance (yeast gene YFL014W): 7.3 | The level of expressed mRNA in the presence of chemical substance/The level of expressed mRNA in the absence of chemical substance (yeast gene YFL030W): 0.8 | The level of expressed mRNA in the presence of chemical substance/The level of expressed mRNA in the absence of chemical substance (yeast gene YFL031W): 0.4 | The level of expressed mRNA in the presence of chemical substance/The level of expressed mRNA in the absence of chemical substance (yeast gene YFL056C): 7.8 | The level of expressed mRNA in the presence of chemical substance/The level of expressed mRNA in the absence of chemical substance (yeast gene YFL057C): 23.4 | The level of expressed mRNA in the presence of chemical substance/The level of expressed mRNA in the absence of chemical substance (yeast gene YFR047C): 1.9 | level of expressed mRNA in the presence/in the absence of chemical substance (yeast gene YGL012W): 0.8 | The level of expressed mRNA in the presence of chemical substance/The level of expressed mRNA in the absence of chemical substance (yeast gene YGL022W): 0.5 | level of expressed mRNA in the presence/in the absence of chemical substance (yeast gene YGL115W): 1.2 | level of expressed mRNA in the presence/in the absence of chemical substance (yeast gene YGL205W): 1.0 | The level of expressed mRNA in the presence of chemical substance/The level of expressed mRNA in the absence of chemical substance (yeast gene YGL209W): 1.6 | The level of expressed mRNA in the presence of chemical substance/The level of expressed mRNA in the absence of chemical substance (yeast gene YGL248W): 1.3 | The level of expressed mRNA in the presence of chemical substance/The level of expressed mRNA in the absence of chemical substance (yeast gene YGR037C): 1.5 | The level of expressed mRNA in the presence of chemical substance/The level of expressed mRNA in the absence of chemical substance (yeast gene YGR055W): 1.2 | level of expressed mRNA in the presence/in the absence of chemical substance (yeast gene YGR096W): 1.2 | level of expressed mRNA in the presence/in the absence of chemical substance (yeast gene YGR191W): 0.7 | The level of expressed mRNA in the presence of chemical substance/The level of expressed mRNA in the absence of chemical substance (yeast gene YGR194C): 1.0 | level of expressed mRNA in the presence/in the absence of chemical substance (yeast gene YGR204W): 0.5 | The level of expressed mRNA in the presence of chemical substance/The level of expressed mRNA in the absence of chemical substance (yeast gene YGR256W): 1.1 | The level of expressed mRNA in the presence of chemical substance/The level of expressed mRNA in the absence of chemical substance (yeast gene YGR282C): 1.0 | level of expressed mRNA in the presence/in the absence of chemical substance (yeast gene YGR288W): 1.1 | level of expressed mRNA in the presence/in the absence of chemical substance (yeast gene YHR025W): 0.6 | The level of expressed mRNA in the presence of chemical substance/The level of expressed mRNA in the absence of chemical substance (yeast gene YHR111W): 1.7 | level of expressed mRNA in the presence/in the absence of chemical substance (yeast gene YHR123W): 0.8 | The level of expressed mRNA in the presence of chemical substance/The level of expressed mRNA in the absence of chemical substance (yeast gene YHR137W): 0.8 | The level of expressed mRNA in the presence of chemical substance/The level of expressed mRNA in the absence of chemical substance (yeast gene YHR174W): 0.6 | The level of expressed mRNA in the presence of chemical substance/The level of expressed mRNA in the absence of chemical substance (yeast gene YHR176W): 1.3 | level of expressed mRNA in the presence/in the absence of chemical substance (yeast gene YHR210C): 1.0 | level of expressed mRNA in the presence/in the absence of chemical substance (yeast gene YIL006W): 1.0 | The level of expressed mRNA in the presence of chemical substance/The level of expressed mRNA in the absence of chemical substance (yeast gene YIL045W): 1.6 | The level of expressed mRNA in the presence of chemical substance/The level of expressed mRNA in the absence of chemical substance (yeast gene YIL107C): 1.6 | The level of expressed mRNA in the presence of chemical substance/The level of expressed mRNA in the absence of chemical substance (yeast gene YIL154C): 0.9 | The level of expressed mRNA in the presence of chemical substance/The level of expressed mRNA in the absence of chemical substance (yeast gene YIL155C): 1.3 | The level of expressed mRNA in the presence of chemical substance/The level of expressed mRNA in the absence of chemical substance (yeast gene YIL167W): 1.4 | The level of expressed mRNA in the presence of chemical substance/The level of expressed mRNA in the absence of chemical substance (yeast gene YIR034C): 1.2 | The level of expressed mRNA in the presence of chemical substance/The level of expressed mRNA in the absence of chemical substance (yeast gene YIR036C): 1.2 | The level of expressed mRNA in the presence of chemical substance/The level of expressed mRNA in the absence of chemical substance (yeast gene YJL031C): 3.0 | The level of expressed mRNA in the presence of chemical substance/The level of expressed mRNA in the absence of chemical substance (yeast gene YJL068C): 1.5 | The level of expressed mRNA in the presence of chemical substance/The level of expressed mRNA in the absence of chemical substance (yeast gene YJL088W): 2.0 | The level of expressed mRNA in the presence of chemical substance/The level of expressed mRNA in the absence of chemical substance (yeast gene YJL099W): 1.8 | level of expressed mRNA in the presence/in the absence of chemical substance (yeast gene YJL121C): 0.9 | level of expressed mRNA in the presence/in the absence of chemical substance (yeast gene YJL167W): 0.9 | The level of expressed mRNA in the presence of chemical substance/The level of expressed mRNA in the absence of chemical substance (yeast gene YJL172W): 0.9 | level of expressed mRNA in the presence/in the absence of chemical substance (yeast gene YJL216C): 1.1 | The level of expressed mRNA in the presence of chemical substance/The level of expressed mRNA in the absence of chemical substance (yeast gene YJL219W): 1.1 | level of expressed mRNA in the presence/in the absence of chemical substance (yeast gene YJR077C): 0.7 | The level of expressed mRNA in the presence of chemical substance/The level of expressed mRNA in the absence of chemical substance (yeast gene YJR137C): 1.2 | level of expressed mRNA in the presence/in the absence of chemical substance (yeast gene YJR143C): 0.6 | The level of expressed mRNA in the presence of chemical substance/The level of expressed mRNA in the absence of chemical substance (yeast gene YJR148W): 1.3 | The level of expressed mRNA in the presence of chemical substance/The level of expressed mRNA in the absence of chemical substance (yeast gene YJR155W): 9.4 | The level of expressed mRNA in the presence of chemical substance/The level of expressed mRNA in the absence of chemical substance (yeast gene YKL035W): 0.6
